Source: patent publication US20190022043A1, “METHODS OF USING CASPASE INHIBITORS IN TREATMENT OF LIVER DISEASE” (Conatus Pharmaceuticals Inc., priority 2015, published 2019)

What was measured:
Type in all cases: in vivo, human
[1] = system: patients with liver cirrhosis; experiment: Phase 2 clinical trial in liver cirrhosis: common indicators of liver damage (ALT, AST); settings: overall patient population
Method: (§1) A double-blind, placebo-controlled Phase 2 clinical trial was conducted at 26 U.S. sites and enrolled 86 patients with liver cirrhosis due to different etiologies, mild to moderate liver impairment as determine by Child Pugh classification and baseline MELD scores of 11 to 18. Patients were randomized 1:1 to receive either 25 mg of emricasan (IDN-6556) or placebo orally twice daily for three months. Endpoints included a change from baseline in cCK18 and changes from baseline in MELD and Child-Pugh scores, which are composite scores of laboratory parameters associated with liver synthetic and excretory function, such as serum albumin levels, international normalized ratio (INR) and total bilirubin levels.
(§2) Among the 86 subjects enrolled and receiving study drug, liver cirrhosis etiologies included alcohol (39%), hepatitis C virus (29%), non-alcoholic steatohepatitis, or NASH (23%), and other causes (9%). Baseline MELD scores were […] in 78% of enrolled subjects and >15 in 22% of enrolled subjects. Baseline Child-Pugh status was A in 43% of subjects and B in 56% of subjects.

[2] = system: patients with liver cirrhosis; experiment: Phase 2 clinical trial in liver cirrhosis: liver function (MELD score, Child-Pugh score, total bilirubin, INR, albumin); settings: for INR Change at Month 3 / Total bilirubin Change at Month 3 / Albumin Change at Month 3 / Child-Pugh score Change at Month 3 / MELD score Change at Month 3: 25 mg orally twice daily, three months, LOCF
Method: as §1, §2
The overall trends were driven by statistically significant improvements in MELD and Child-Pugh scores in a high medical need subgroup of patients with baseline MELD scores ≥15, the established prerequisite for listing a patient for liver transplant.

[3] = system: caspase-driven cell death (cCK18, caspase 3/7, flCK18); experiment: Phase 2 clinical trial in liver cirrhosis: mechanism-based biomarkers (cCK18, caspase 3/7, flCK18); settings: overall patient population
Method: as §1, §2

[4] = baseline MELD ≥15 subgroup, after three months of treatment, placebo two of ten

For C[C@H](NC(=O)C(=O)Nc1ccccc1C(C)(C)C)C(=O)N[C@@H](CC(=O)O)C(=O)COc1c(F)c(F)cc(F)c1F [Emricasan, (3S)-3-[N—(N′-(2-tert-Butylphenyl) Oxamyl)Alaninyl]Amino-5-(2′,3′,5′,6′-Tetrafluorophenoxy)-4-Oxopentanoic Acid], which “common indicators of liver damage (ALT, AST)” value [1] is on record?
The value was “positive changes”.

And the “ALT Change at Month 3 (median change)” value ([1]; N = 44, 25 mg orally twice daily, three months, LOCF, baseline 27.5, p 0.03 vs placebo)?
The value was −3.0 U/L.

And the “AST Change at Month 3 (median change)” value ([1]; N = 44, 25 mg orally twice daily, three months, LOCF, baseline 50.0, p 0.08 vs placebo)?
The value was −5.0 U/L.

And the “INR Change at Month 3” value ([2]; baseline MELD score ≥15 patient population, N = 9, baseline 1.54, p 0.0004 vs placebo)?
Its value is −0.14.

And the “Total bilirubin Change at Month 3” value ([2]; baseline MELD score ≥15 patient population, N = 9, baseline 3.17, p 0.03 vs placebo)?
The value was -0.55 mg/dL.

And the “Albumin Change at Month 3” value ([2]; baseline MELD score ≥15 patient population, N = 9, baseline 3.41, p 0.78 vs placebo)?
Its value is “+0.07 g/dL”.

And the “Child-Pugh score Change at Month 3” value ([2]; baseline MELD score ≥15 patient population, N = 9, baseline 7.8, p 0.003 vs placebo)?
The value was −0.6.

What about the “MELD score Change at Month 3” value ([2]; baseline MELD score ≥15 patient population, N = 9, baseline 16.0, p 0.003 vs placebo) of the same compound?
The value was −1.6.

What about the “patients with an increase in Child-Pugh score” value ([2]; baseline MELD ≥15 subgroup, after three months of treatment, placebo four out of ten (at least one point increase)) of the same compound?
The value was “none of nine”.

What about the “patients who achieved a reduction in MELD score to below 14” value ([2]; baseline MELD ≥15 subgroup, after three months of treatment, placebo one out of ten) of the same compound?
The value was “Four of nine”.

What about the “patients who achieved at least a 2 point reduction in MELD score” value [2, 4] of the same compound?
Its value is “Six of nine”.

And the “patients with at least a one point reduction in Child Pugh score” value [2, 4]?
The value was “Four of nine”.

And the “INR Change at Month 3” value ([2]; overall patient population, N = 44, baseline 1.33, p 0.12 vs placebo)?
Its value is −0.02.

And the “Total bilirubin Change at Month 3” value ([2]; overall patient population, N = 44, baseline 2.25, p 0.19 vs placebo)?
The value was -0.05 mg/dL.

What about the “Albumin Change at Month 3” value ([2]; overall patient population, N = 44, baseline 3.46, p 0.38 vs placebo) of the same compound?
Its value is “+0.02 g/dL”.

And the “Child-Pugh score Change at Month 3” value ([2]; overall patient population, N = 44, baseline 6.9, p 0.10 vs placebo)?
The value was −0.2.

And the “MELD score Change at Month 3” value ([2]; overall patient population, N = 44, baseline 12.8, p 0.50 vs placebo)?
Its value is −0.1.

What about the “other mechanism-based biomarkers (caspase 3/7, flCK18)” value [3] of the same compound?
The value was “positive changes”.

And the “cCK18 Change at Month 3” value ([3]; N = 44, 25 mg orally twice daily for three months, last observation carried forward, baseline 289 U/L (geometric mean), p 0.04 vs placebo)?
Its value is −4.6%.

What about the “flCK18 Change at Month 3” value ([3]; N = 44, 25 mg orally twice daily, three months, LOCF, baseline 714 U/L, p 0.005 vs placebo) of the same compound?
Its value is −18%.

What about the “Caspase 3/7 Change at Month 3” value ([3]; N = 44, 25 mg orally twice daily, three months, LOCF, baseline 2656 RLU, p <0.0001 vs placebo) of the same compound?
The value was −45.5%.

What about the “caspase-cleaved cytokeratin 18 (cCK18) vs. placebo” value ([3]; adjusted for baseline MELD score and disease etiology, p=0.04) of the same compound?
The value was “statistically significant reduction”.
